Experiments:
[1] = test system: murine melanoma (B16) cell line; set-up: method as in PMID 26828469; details: same observation as in this study; cited from earlier work
HepG2 cells [2] = test: TPC assay (total protein content), HepG2; assay type: cell-based, human; details: for Lowest concentration with significant (p ≤ 0.05) decrease of total protein content (TPC): HepG2, 72 h, vs negative control 0.1% DMSO
Experimental: (§1) Data obtained from the measurement of the optical density in these assays were transformed to percentages in relation to the control group, considered to be 100% for the MTT, NRU, and TPC assays and 0% for the LDH assay (Figure 1).
(§2) The human hepatoma cell line (HepG2) was purchased from the American Type Culture Collection (ATCC HB-8065). These cells were cultured in Minimum Essential Medium Eagle (MEME) (ATCC). The murine fibroblast cell line (Balb/c 3T3 clone A31) (gift from Department of Swine Diseases of the National Veterinary Research Institute in Pulawy) was cultured in Dulbecco’s Modified Eagle’s Medium (DMEM) (ATCC). The media were supplemented with 10% BCS (Balb/c 3T3), 10% FBS (HepG2), 1% L-glutamine, and 1% antibiotic solution. The cells were maintained in 75 cm^2 cell culture flasks (Nunc, Roskilde, Denmark) in a humidified incubator, NuAire (Plymouth, MN, USA) at 37 °C, in an atmosphere of 5% CO2. The medium was refreshed every two or three days and the cells were trypsinized by 0.25% trypsin–0.02% EDTA after reaching 70–80% confluence. Single cell suspensions were prepared and adjusted to a density of 2 × 10^5 cells/mL (HepG2) and 5 × 10^4 cells/mL (Balb/c 3T3). The cell suspension was transferred to 96-well plates (100 µL/well) and incubated for 24 h before the exposure to the study compounds.
(§3) The concentration ranges of compounds were chosen according to their solubility and their plasma level. Each compound was dissolved in DMSO. The final concentration of DMSO was 0.1% in the medium. The same final concentrations of the solvent and the 1% Trition-X 100 solution were used as the negative and positive controls, respectively. […] All compound solutions in the medium were freshly prepared and protected from light. […] The concentration range was selected on the basis of results from previous studies. Each concentration was tested in six replicates with three independent experiments. Cytotoxicity was assessed after 72 h of exposure of the cells to the compounds. The medium was not changed during the incubation time.
(§4) The assay was based upon staining total cellular protein (proliferation). After incubation, the medium containing the compound was removed and 100 µL of Coomassie Brilliant Blue R-250 dye were added to each well. The plate was shaken for 10 min. Then, the stain was removed and the cells were rinsed twice with 100 µL of washing solution (glacial acetic acid/ethanol/water). After that, a 100 µL portion of the desorbing solution (1 M potassium acetate) was added and plates were shaken again for 10 min. The absorbance was measured at 595 nm in a microplate reader (LabSystems Multiskan RC, Thermo Fisher Scientific, Waltham, MA, USA) using a blank as a reference. Cytotoxicity was expressed as a percentage of the negative control (0.1% DMSO).
(§5) The results of the tests were expressed as a mean ± SD. The experiments were performed in three independent repetitions. Statistical analysis was performed using GraphPad Prism 5 (San Diego, CA, USA). One-way analysis of variance (ANOVA) followed by Dunnett’s post-hoc test was applied. The 50% inhibition (cytotoxicity) concentrations (IC50) were derived from the dose–response curve plotted with the concentration of the compound (X-axis) vs. cell viability percent (Y-axis). The IC50 values were calculated by GraphPad Prism 5 software (San Diego, CA, USA). Statistical comparisons among IC50 values were performed by the analysis of variance (ANOVA) followed by the Tukey test. Values of p ≤ 0.05 were considered statistically significant.

HepG2 cells [3] = test: MTT assay (mitochondrial activity), HepG2; assay type: cell-based, human; details: for Lowest concentration with significant (p ≤ 0.05) inhibition of mitochondrial activity (MTT): HepG2, 72 h, vs negative control 0.1% DMSO
Experimental: as §1, §2, §3
(§6) The metabolic activity of living cells was assessed by measuring the activity of dehydrogenases. After incubation of the cells with the compounds, a 10 μL portion of the MTT solution (5 mg/ml in PBS) was added to each well of the 96-well plates and incubated. After 3 h, the MTT solution was removed and the intracellular formazan crystals were dissolved in 100 µl DMSO. The plate was shaken for 15 min at room temperature and transferred to a microplate reader (LabSystems Multiskan RC, Thermo Fisher Scientific, Waltham, MA, USA) to measure the absorbance at 570 nm, using blanks as a reference. Cytotoxicity was expressed as a percentage of the negative control (0.1% DMSO).
as §5

Balb/c 3T3 cells [4] = test: MTT assay (mitochondrial activity), Balb/c 3T3; assay type: cell-based, mouse; details: for Lowest concentration with significant (p ≤ 0.05) inhibition of mitochondrial activity (MTT): Balb/c 3T3, 72 h, vs negative control 0.1% DMSO
Experimental: as §1, §2, §3, §6, §5

Balb/c 3T3 cells [5] = test: TPC assay (total protein content), Balb/c 3T3; assay type: cell-based, mouse; details: for Lowest concentration with significant (p ≤ 0.05) decrease of total protein content (TPC): Balb/c 3T3, 72 h, vs negative control 0.1% DMSO
Experimental: as §1, §2, §3, §4, §5

[6] = Cytotoxicity over four assays in both cell lines; assay type: cell-based; details: mouse (Balb/c 3T3) and human (HepG2), Balb/c 3T3 clone A31 fibroblasts and HepG2 hepatoma cells, mostly greater than 50%, read-out: Viability of the cells at the highest concentrations used
Experimental: as §1
as §2, with “Single cell suspensions were prepared and adjusted to a density of 2 × 10^5 cells/mL (HepG2) and 5 × 10^4 cells/mL (Balb/c 3T3). The cell suspension was transferred to 96-well plates (100 µL/well) and incubated for 24 h before the exposure to the study compounds.” left out
The concentration ranges of compounds were chosen according to their solubility and their plasma level. […] Cytotoxicity was assessed after 72 h of exposure of the cells to the compounds. […]
The results of the tests were expressed as a mean ± SD. […] The IC50 values were calculated by GraphPad Prism 5 software (San Diego, CA, USA). […]

HepG2 cells [7] = test: Leakage LDH assay (cellular membrane integrity), HepG2; assay type: cell-based, human; details: for Lowest concentration with significant (p ≤ 0.05) disintegration of the cellular membrane (LDH): HepG2, 72 h, vs negative control 0.1% DMSO
Experimental: as §1, §2, §3
(§7) The integrity of the plasma membrane was assessed using the test of lactate dehydrogenase (LDH) release, which was monitored using the commercially available Cytotoxicity Detection Kit (LDH) (Roche Diagnostics, Warsaw, Poland). The medium (100 µL/well) without cells was transferred into the corresponding wells of an optically clear 96-well flat bottom microplate and a 100 µl reaction mixture was added to each well. Then, the plates were incubated for 30 min at room temperature in darkness. After that time, a 50 µL/well 1 M HCl was added to stop the reaction. The absorbance was measured at 492 nm in a microplate reader (LabSystems Multiskan RC, Thermo Fisher Scientific, Waltham, MA, USA) using a blank as a reference.
as §5

HepG2 cells [8] = test: NRU assay (lysosomal activity), HepG2; assay type: cell-based, human; details: for Lowest concentration with significant (p ≤ 0.05) inhibition of lysosomal activity (NRU): HepG2, 72 h, vs negative control 0.1% DMSO
Experimental: as §1, §2, §3
(§8) The assay, based on the staining of living cells by neutral red, was performed according to the protocol described by Borenfreund and Puerner. After incubation, the medium containing the compound was removed and the cells were washed with PBS. Then, a 100 µL/well of NR solution (50 µg/mL) was added for 3 h. After that time, the cells were washed with PBS. The dye from viable cells was released by extraction with a mixture of acetic acid, ethanol, and water. After 10 min of shaking, the absorbance of the dissolved NR was measured at 540 nm in a microplate reader (LabSystems Multiskan RC, Thermo Fisher Scientific, Waltham, MA, USA) using a blank as a reference. Cytotoxicity was expressed as a percentage of the negative control (0.1% DMSO).
as §5

Balb/c 3T3 cells [9] = test: Leakage LDH assay (cellular membrane integrity), Balb/c 3T3; assay type: cell-based, mouse; details: for Lowest concentration with significant (p ≤ 0.05) disintegration of the cellular membrane (LDH): Balb/c 3T3, 72 h, vs negative control 0.1% DMSO
Experimental: as §1, §2, §3, §7, §5

10T1/2 cell line = test system: 10T1/2 cell line; set-up: method as in PMID 26828469; details: same observation as in this study; cited from earlier work
Balb/c 3T3 cells [10] = test: NRU assay (lysosomal activity), Balb/c 3T3; assay type: cell-based, mouse; details: for Lowest concentration with significant (p ≤ 0.05) inhibition of lysosomal activity (NRU): Balb/c 3T3, 72 h, vs negative control 0.1% DMSO
Experimental: as §1, §2, §3, §8, §5

Row | Structure (SMILES) | Cytotoxicity in B16 cell line [1] | IC50 (HepG2 cells [2]; Homo sapiens, HepG2, 72 h exposure, mean (n = 3) ± SEM, read-out: Inhibitory concentration IC50, TPC) [µM] | IC50 (HepG2 cells [3]; Homo sapiens, HepG2, 72 h exposure, mean (n = 3) ± SEM, read-out: Inhibitory concentration IC50, MTT) [µM] | Lowest concentration with significant (p ≤ 0.05) inhibition of mitochondrial activity (MTT) (Balb/c 3T3 cells [4]) [µM] | IC50 (Balb/c 3T3 cells [4]; Mus musculus, BALB/c3T3, Balb/c 3T3, 72 h exposure, mean (n = 3) ± SEM, read-out: Inhibitory concentration IC50, MTT) [µM] | Lowest concentration with significant (p ≤ 0.05) decrease of total protein content (TPC) (Balb/c 3T3 cells [5]) [µM] | IC50 (Balb/c 3T3 cells [5]; Mus musculus, BALB/c3T3, Balb/c 3T3, 72 h exposure, mean (n = 3) ± SEM, read-out: Inhibitory concentration IC50, TPC) [µM] | viability at 72 h [6] [%] | IC50 (HepG2 cells [7]; Homo sapiens, HepG2, 72 h exposure, mean (n = 3) ± SEM, read-out: Inhibitory concentration IC50, LDH) [µM] | IC50 (HepG2 cells [8]; Homo sapiens, HepG2, 72 h exposure, mean (n = 3) ± SEM, read-out: Inhibitory concentration IC50, NRU) [µM] | IC50 (Balb/c 3T3 cells [9]; Mus musculus, BALB/c3T3, Balb/c 3T3, 72 h exposure, mean (n = 3) ± SEM, read-out: Inhibitory concentration IC50, LDH) [µM] | Cytotoxicity in 10T1/2 cell line (10T1/2 cell line) | Lowest concentration with significant (p ≤ 0.05) inhibition of lysosomal activity (NRU) (Balb/c 3T3 cells [10]) [µM] | IC50 (Balb/c 3T3 cells [10]; Mus musculus, BALB/c3T3, Balb/c 3T3, 72 h exposure, mean (n = 3) ± SEM, read-out: Inhibitory concentration IC50, NRU) [µM] | Lowest concentration with significant (p ≤ 0.05) decrease of total protein content (TPC) (HepG2 cells [2]) [µM] | Lowest concentration with significant (p ≤ 0.05) inhibition of mitochondrial activity (MTT) (HepG2 cells [3]) [µM] | Lowest concentration with significant (p ≤ 0.05) disintegration of the cellular membrane (LDH) (HepG2 cells [7]) [µM] | Lowest concentration with significant (p ≤ 0.05) inhibition of lysosomal activity (NRU) (HepG2 cells [8]) [µM] | Lowest concentration with significant (p ≤ 0.05) disintegration of the cellular membrane (LDH) (Balb/c 3T3 cells [9]) [µM]
1 | OCc1ccncc1 [4-hydroxymethylpyridine] | poorly cytotoxic | > 227 | > 227 | 13.6 | > 227 | 57 | > 227 | > 50 | > 227 | > 227 | > 227 | poorly cytotoxic | 7.0 | > 227 | – | – | – | – | –
2 | O=[N+]([O-])[O-].OCc1ccncc1.OCc1ccncc1.[Ag+] [Silver(I) + 4-hydroxymethylpyridine, [(4-hydroxymethylpyridine)2Ag]NO3] | – | – | – | 3.8 | – | 1.9 | – | – | – | – | – | – | 0.98 | – | 7.6 | 3.8 | 3.8 | 3.8 | 0.98
3 | Cc1ncc([N+](=O)[O-])n1CCO.Cc1ncc([N+](=O)[O-])n1CCO.O=[N+]([O-])[O-].[Ag+] [Silver(I) + metronidazole, [(Metronidazole)2AgNO3]] | – | – | – | 0.74 | – | 3.0 | – | – | – | – | – | – | 3.0 | – | 3.0 | 6.0 | 6.0 | 6.0 | 0.74
